Our source for the Ki values is US6903132B2, “Non-peptide GnRH agents, pharmaceutical compositions and methods for their use” (Agouron Pharmaceuticals, Inc., priority 2002, dated 2005).

The structures appear in SMILES notation.

The target of one test is T1, human GnRH receptors (Homo sapiens, UniProt P30968).
T1 construct: expressed in transfected cells; host or cells: HEK 293
T1 sequence (P30968 1-328): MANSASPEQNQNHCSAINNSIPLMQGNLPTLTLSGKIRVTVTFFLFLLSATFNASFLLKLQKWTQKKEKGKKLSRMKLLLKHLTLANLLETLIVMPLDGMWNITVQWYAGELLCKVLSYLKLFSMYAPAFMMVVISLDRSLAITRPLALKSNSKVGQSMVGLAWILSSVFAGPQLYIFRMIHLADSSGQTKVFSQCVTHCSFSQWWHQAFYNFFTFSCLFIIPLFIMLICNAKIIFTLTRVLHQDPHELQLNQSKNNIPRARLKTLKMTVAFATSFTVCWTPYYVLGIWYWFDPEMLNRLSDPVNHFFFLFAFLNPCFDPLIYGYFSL
As to the kind of experiment: Radioligand binding assay: inhibition of binding of 125I-GnRH-A to GnRH receptors (membranes). The note with it: Human GnRH receptor; competition with 125I-GnRH-A; Ki calculated from IC50 (Cheng et al.). The protocol: (§1) HEK 293 cells stably transfected with mouse or human GnRH receptors as described above are grown in Dulbecco's high-glucose, modified Eagle's medium (DMEM) supplemented with 0.2% G418, 10% fetal bovine serum (FBS) and 100U/mL penicillin/streptomycin. GH3 cells stably transfected with the rat GnRH receptor (GGH3) were provided by Dr. William Chin (Harvard Medical School, Boston, Mass.). These cells are extensively characterized previously (Kaiser et al., 1997). The cells are grown in low glucose DMEM containing: 100U/mL penicillin/streptomycin, 0.6% G418 and 10% heat-inactivated FBS.
(§2) HEK 293 cells containing mouse or human receptors, or rat pituitaries (Pel Freez Biologicals, Rogers, Ark.) are homogenized in buffer A containing: 50 mM Tris (pH 7.4), 0.32 M sucrose, 2 mM EGTA, 1 mM PMSF, 5 μg/ml aprotinen, 5 μg/ml Pepstatin A, and 1 μg/ml leupeptin. Homogenized cells are centrifuged at 4° C. at 20,000×g for 25 minutes, re-suspended in buffer A and re-centrifuged at 4° C. at 20,000×g for an additional 25 minutes. Total membrane protein was determined with a BCA kit (Pierce, Rockford, Ill.). Membranes are stored at −70° C. at a final membrane protein concentration of approximately 5 mg/ml.
(§3) The radioiodinated agonist analog of GnRH, [des-Gly^10, D-Ala^6]GnRH ethylamide (^125I-GnRH-A), is used as the radioligand. One μg of GnRH-A diluted in 0.5 M phosphate buffer (pH 7.4) is added to an lodogen®-coated borosilicate glass tube (Pierce, Rockford, Ill.) containing 35 μl of 0.05 M phosphate buffer (pH 7.4-7.6) and 1 mCi of Na[^125I]. The reaction mixture is vortexed and incubated for 1 minute at room temperature. After one minute, the mixture is vortexed and allowed to incubate for an additional minute. 2 ml of 0.5 M acetic acid/1% BSA is added to the reaction tube and the mixture is added to a C18 Sep-Pak cartridge. The cartridge is washed with subsequent washes of 5 ml H2O and 5 ml 0.5 M acetic acid and then eluted with 5×1 ml of 60%CH3CN/40% 0.5 M acetic acid. The eluate is diluted with 3× volume of HPLC buffer A (0.1% TFA in H2O) and loaded onto a C18 column. The iodinated product is eluted over 20-25 min with a gradient of 25-100% CH3CN containing 0.1% TFA. The radioactive fractions (750 μl/fraction) are collected into clean polypropylene tubes containing 100 μl of 10% BSA. Fractions are assessed for biological activity by radiolig and binding. Specific activity of the radioligand was approximately 2200 Ci/mmol.
(§4) Membranes are diluted to 0.01-0.5 mg/ml (depending upon the species of receptor) with assay buffer containing 50 mM HEPES (pH 7.4), 1 mM EDTA, 2.5 mM MgCl2, and 0.1% BSA. Membranes (diluted to utilize similar receptor numbers between assays) are incubated with approximately 0.04-0.06 nM ^125I-GnRH-A in the presence or absence of competing agents (0.1-10,000 nM) in a total volume of 200 μl in 96-well polypropylene plates for 1 hour at room temperature. Assays are stopped by rapid filtration onto 96-well GF/C filters soaked in 0.1% polyethylenimine (PEI) utilizing a Packard 96-well cell harvester. Filters are washed three times with ice-cold PBS (50 mM NaPO4, 0.9% NaCl, 2 mM MgCl2, and 0.02% NaN3, pH 7.4). 35 μl of scintillation cocktail is added to each filter well and filters are counted on a Packard Topcount. Control dose-response curves are generated to GnRH (0.1 nM-100 nM) in each competition binding experiment. Ki values were calculated from IC50 values according to Cheng et al., Biochemical Pharmacol. 22: 3099-3108, 1973. [formula]

For another test, the target named is T2, rat GnRH receptor (Rattus norvegicus, UniProt P30969).
T2 construct: rat pituitaries (Pel Freez Biologicals, Rogers, Ark.) are homogenized in buffer A; tissue Pel Freez Biologicals; host or cells: rat pituitaries
T2 sequence (P30969 1-327): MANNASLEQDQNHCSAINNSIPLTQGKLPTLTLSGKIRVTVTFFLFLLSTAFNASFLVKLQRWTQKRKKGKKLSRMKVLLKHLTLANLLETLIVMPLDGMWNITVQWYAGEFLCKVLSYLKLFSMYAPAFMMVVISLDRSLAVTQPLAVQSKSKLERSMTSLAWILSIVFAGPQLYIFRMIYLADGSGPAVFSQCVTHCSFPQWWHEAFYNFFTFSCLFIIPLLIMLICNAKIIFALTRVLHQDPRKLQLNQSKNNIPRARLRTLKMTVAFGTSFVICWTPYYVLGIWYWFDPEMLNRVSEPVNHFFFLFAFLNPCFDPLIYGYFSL
The test is described as above. To be noted: competition with 125I-GnRH-A, Ki calculated from IC50 (Cheng et al.). The protocol:
as §1, §2, §3, §4

In the case of `Cc1cc2c(cc1Cc1ccc(C(=O)NNc3ccc4ccccc4n3)o1)C(C)(C)OC2(C)C` [Example E4, 5-(1,1,3,3,6-Pentamethyl-1,3-dihydro-isobenzofuran-5-ylmethyl)-furan-2-carboxylic acid N′-quinolin-2-yl-hydrazide], the Ki at human GnRH receptors is 24 nM; on rat GnRH receptor it was 23 nM.

With `Cc1ccc(N(C)NC(=O)c2ccc(Oc3cc4c(cc3C)C(C)(C)C(C)CC4(C)C)o2)nn1` (stereo not shown) [Example I16, 5-(3,5,5,6,8,8-Hexamethyl-5,6,7,8-etrahydro-naphthalen-2-yloxy)-furan-2-carboxylic acid N′-methyl-N′-(6-methyl-pyridazin-3-yl)-hydrazide], the Ki is 9 nM on human GnRH receptors and 18 nM at rat GnRH receptor.

In the case of `Cc1cc2c(cc1Oc1ccc(C(=O)NNc3ccc4ccccc4n3)o1)C(C)(C)OC2` [Example N3, 5-(3,3,6-Trimethyl-1,3-dihydro-isobenzofuran-5-yloxy)-furan-2-carboxylic acid N′-quinolin-2-yl-hydrazide], the Ki is 130 nM on human GnRH receptors and 100 nM at rat GnRH receptor.

Regarding `CCC(C)(C)c1ccc(OC)c(Cc2ccc(C(=O)NNc3cc(C)c4c(C)nn(C)c4n3)o2)c1` [Example J13, 5-[2-Methoxy-5-(tert-pentyl)benzyl]-N′-(1,3,4-trimethyl-1H-pyrazolo[3,4-b]pyridin-6-yl)-2-furohydrazide], the Ki at human GnRH receptors is greater than 10000 nM.

As to `Cc1cc2c(cc1Oc1ccc(C(=O)NNc3ncnc4scc(C)c34)o1)C(C)(C)CC(C)C2(C)C` (stereo not shown) [Example I15, 5-(3,5,5,6,8,8-Hexamethyl-5,6,7,8-tetrahydro-naphthalen-2-yloxy)-furan-2-carboxylic acid N′-(5-methyl-thieno[2,3-d]pyrimidin-4-yI)-hydrazide], the Ki on human GnRH receptors is 7.2 nM; on rat GnRH receptor, 19 nM.

Consider `CC(=O)N1CCC(C)(C)c2cc(Oc3ccc(C(=O)NNc4cc(C)c5c(C)nn(C)c5n4)o3)c(Cl)cc21` [Example I1, 5-(1-Acetyl-7-chloro-4,4-dimethyl-1,2,3,4-tetrahydro-quinolin-6-yloxy)-furan-2-carboxylic acid N′-(1,3,4-trimethyl-1H-pyrazolo[3,4-b]pyridin-6-yl)-hydrazide], for which the Ki on human GnRH receptors was 630 nM.

Consider `COc1ccc(OC)c(Cc2ccc(C(=O)NNc3cc(C)c4c(C)nn(C)c4n3)o2)c1` [Example J6, 5-(2,5-Dimethoxy-benzyl)-furan-2-carboxylic acid N′-(1,3,4-trimethyl-1H-pyrazolo[3,4-b]pyridin-6-yl)-hydrazide], for which the Ki at human GnRH receptors is 16100 nM.

`Cc1cc2c(cc1Oc1ccc(C(=O)NNc3ccc4ccccc4n3)o1)C(C)(C)C(C)C2(C)C` (stereo not shown) [Example M3, 5-(1,1,2,3,3,6-Hexamethyl-indan-5-yloxy)-furan-2-carboxylic acid N′-quinolin-2-yl-hydrazide]: the Ki at human GnRH receptors was 4.1 nM; on rat GnRH receptor, 2.9 nM.

On to `Cc1cc2c(cc1Oc1ccc(C(=O)NNc3ncc(C(F)(F)F)cc3Cl)o1)C(C)(C)C(C)C2(C)C` (stereo not shown) [Example M1, 5-(1,1,2,3,3,6-Hexamethyl-indan-5-yloxy)-furan-2-carboxylic acid N′-(chloro-trifluoromethyl-pyridin-2-yl)-hydrazide], for which the inhibitory constant (Ki) is 23 nM at human GnRH receptors and 11 nM on rat GnRH receptor.

For the compound `COc1c(Cl)c(C)c(Cl)c(C)c1Cc1ccc(C(=O)NNc2cc(C)c3c(C)nn(C)c3n2)o1` [Example J30, 5-(3,5-Dichloro-2-methoxy-4,6-dimethyl-benzyl)-furan-2-carboxylic acid N′-(1,3,4-trimethyl-1H-pyrazolo[3,4-b]pyridin-6-yl)-hydrazide], the Ki on human GnRH receptors is 480 nM.

With `Cc1cc2c(cc1Cc1ccc(C(=O)NNc3ccccn3)o1)C(C)(C)CCC2(C)C` [Example C10, 5-[(3,5,5,8,8-Pentamethyl-5,6,7,8-tetrahydro-2-napthalenyl)methyl]-N′-(2-pyridinyl)-2-furohydrazide], on human GnRH receptors, the Ki is 350 nM.

As for `Cc1cc2c(cc1Cc1ccc(C(=O)NNc3cc(C)c4c(C)nn(C)c4n3)o1)C(C)(C)CCC2` [Example J26, 5-(3,8,8-Trimethyl-5,6,7,8-tetrahydro-naphthalen-2-ylmethyl)-furan-2-carboxylic acid N′-(1,3,4-trimethyl-1H-pyrazolo[3,4-b]pyridin-6-yl)-hydrazide], the Ki was 1.6 nM at human GnRH receptors and 17 nM on rat GnRH receptor.

For `Cc1cc2c(cc1Oc1ccc(C(=O)NNc3ccc(C(F)(F)F)cn3)o1)C(C)(C)C(C)C2(C)C` (stereo not shown) [Example M2, 5-(1,1,2,3,3,6-Hexamethyl-indan-5-yloxy)-furan-2-carboxylic acid N′-(5-trifluoromethyl-pyridin-2-yl)-hydrazide], the Ki is 19 nM on human GnRH receptors and 29 nM at rat GnRH receptor.

For the compound `CC(=O)N(C)c1ccc(C)c(Oc2ccc(C(=O)NNc3cc(C)c4c(C)nn(C)c4n3)o2)c1` [Example I30, N-Methyl-N-(4-methyl-3-{5-[N′-(1,3,4-trimethyl-1H-pyrazolo[3,4-b]pyridin-6-yl)-hydrazinocarbonyl]-furan-2-yloxy}-phenyl)-acetamide], the Ki on human GnRH receptors is 630 nM.

With `Cc1cc(NNC(=O)c2ccc(Oc3cc4c(cc3Cl)N(C)C(=O)CC4(C)C)o2)nc2c1c(C)nn2C` [Example L2, 5-(7-Chloro-1,4,4-trimethyl-2-oxo-1,2,3,4-tetrahydro-quinolin-6-yloxy)-furan-2-carboxylic acid N′-(1,3,4-trimethyl-1H-pyrazolo[3,4-b]pyridin-6-yl)-hydrazide], the Ki at human GnRH receptors was 5020 nM.

With `Cc1c(C)c(C)c(Cc2ccc(C(=O)NNc3cc(C)c4c(C)nn(C)c4n3)o2)c(C)c1C` [Example J5, 5-(2,3,4,5,6-Pentamethylbenzyl)-N′-(1,3,4-trimethyl-1H-pyrazolo[3,4-b]pyridin-6-yl)-2-furohydrazide], on human GnRH receptors, the Ki is 1400 nM.

Consider `Cc1cc(NNC(=O)c2ccc(Cc3cc4c(cc3C(C)C)C(C)(C)CCC4(C)C)o2)nc2c1c(C)nn2C` [Example C3, 5-[(3-lsopropyl-5,5,8,8-tetramethyl-5,6,7,8-tetrahydro-2-naphthalenyl)methyl]-N′-(1,3,4-trimethyl-1H-pyrazolo[3,4-b]pyridin-6-yl)-2-furohydrazide], for which the inhibition constant Ki on human GnRH receptors was 300 nM.

The term Ki denotes the dissociation constant of the complex between target and ligand, obtained from inhibition or displacement.
